Data on 2 substances can be found in patent publication US11077205B2, “Synthetic compound for improving efficiency of transfection” (Klinikum der Universität München, priority 2016, dated 2021).

The star is where a group is joined. ξ: configuration not given here. Lipoyl(6ξ) = O=C(CCCCC1CCSS1)*

Data set [1] is described as follows: Size and zeta potential measurements (Zetasizer Nano ZS) of P704 based binary and ternary complexes. Type of data set: physicochemical. As for the experimental part:
Size and zeta potential measurements: Particle size and zeta potential measurements of P704 based binary and ternary complexes were measured using a Zetasizer Nano ZS (Malvern Instruments Ltd.) at 25° C. Binary complexes were prepared in Tyrode's solution at a weight/weight ratio (P704/IVT-mRNA or pDNA) of 63:1. Ternary complexes were prepared in NF-water with P704 at a weight/weight ratio of 63:1 and the compound at N/P ratio of 10:1 (compound 0 (DL) and compound 8) or 5:1 (compound 4 and compound 9) using methods described above. The IVT-mRNA and pDNA concentration in both binary and ternary complexes was fixed at 10 μg/ml.
The results of physical characterizations (size and zeta potential) of P704 based binary and ternary complexes containing IVT-mRNA or pDNA are given in the following table: […]

A further data set concerns BEAS-2B cells. The data set can be described thus: In vitro transfection, Metridia luciferase assay in BEAS-2B cells. It is filed as cell-based, human. On the procedure:
(§1) Preparation of IVT-mRNA/pDNA containing binary and ternary complexes: Stock solutions of P704 (5 mg/ml) and synthetic compound (1 mg/ml) were prepared in nuclease-free water (NF water) and stored at 4° C. P704 based binary complexes (P704/IVT-mRNA or P704/pDNA) were prepared by mixing equal volumes of diluted P704 stock solution with IVT-mRNA or pDNA solution at the desired concentration in 2× Tyrode's solution. Ternary complexes were generated via two-steps incubation. Briefly, P704 solutions at certain concentration (defined as weight/weight (w/w) ratio between P704 and nucleic acids) in NF-water were mixed with equal volume of synthetic compound solution at specific concentration (defined as N/P ratio, namely the […] between nitrogen residues in synthetic compound and nucleic acids phosphate groups). After 20 min incubation at room temperature (RT), same volumes of nucleic acid (IVT-mRNA or pDNA) solution in NF-water were added to the above P704/synthetic compound solution and mixed gently by pipetting up and down several times. Subsequently, complexes were incubated for another 20 min at RT prior to further use. IVT-mRNA or pDNA solutions in NF-water were complexed with brPEI (25 kDa) at an optimum N/P ratio, the resulting complexes were served as a control polyplex. As for control lipoplex, Lipofectamine® 2000 complexes were prepared according to the manufacturer's instructions using optimum concentration. In order to prepare DOTAP/DOPE liposomes, a lipid film was formed by removing the chloroform solvent in DOTAP/DOPE mixture solution under nitrogen atmosphere. The lipid film is hydrated with NF-water to make the final concentration 10 mM DOTAP/DOPE. The DOTAP/DOPE liposome formulation was formed by mixing 250 μl of pDNA encoding for firefly luciferase and cystic fibrosis transmembrane conductance regulator (fLUC-CFTR pDNA) (150 μg) containing solution and 250 μl diluted DOTAP/DOPE solution (190 μl of 10 mM DOTAP/DOPE liposome and 60 μl NF-water). The mix solution was incubated at RT for 20 min prior to further use.
(§2) In vitro transfection: For the luciferase assay, cells were seeded at a density of 1.8×10^4/well (BEAS-2B) or 3.5×10^4/well (16HBE) in 96-well plates 24 h before transfection to reach 60-80% confluence. Following removal of growth medium, cells were rinsed with DPBS (Gibco, Germany). 170 μl of fresh serum-free OptiMEM (Gibco, Germany) were added per well, and subsequently 30 μl of IVT-mRNA or pDNA containing complexes prepared, as described above, corresponding to 400 ng IVT-mRNA or pDNA per well, were added in replicates of five. After 4 h of incubation at 37° C. in a humidified 5% CO2-containing atmosphere, the transfection medium was replaced with culture medium supplemented with 10% FBS and 1% (v/v) penicillin/streptomycin. Luciferase activity in 50 μl supernatants from transfected cells was assayed with Metridia luciferase substrate (coelenterazine, Invivogen, France) after 24 h using a FLUOstar microplate reader (BMG Labtech, Germany) and its activity is expressed in relative light units (RLU). In all cases each sample was measured on at least two other occasions to ensure the reproducibility of the data.
The same transfection procedure as described above was applied. Luciferase activity was expressed in RLU. The data are given as the mean±standard deviation (SD) of the mean (n>5) in FIGS. 12a to 12k.
(§3) The concentration of P704 in ternary complexes for treatment of BEAS-2B cells was 50 (w/w) and the concentration of P704 in ternary complexes for treatment of 16HBE cells was 63 (w/w). The N/P ratios of the compounds in ternary complexes were as follows:
BEAS-2B cells: Compound 0 (DL) at 30, compound 1 at 20, compounds 3 and 11 at 15, compounds 4 and 6 at 10, compounds 2 and 9 at 5, compounds 5, 7, 8 and 10 at 2.5.
The same transfection procedure as described above was applied. Luciferase activity was expressed in RLU. […]

The subject of another data set is 16HBE cells. The data set can be described thus: In vitro transfection, Metridia luciferase assay in 16HBE cells. It is filed as cell-based, human. On the procedure:
as §1
as §2, with “data. […]” for “data.”
as §3
16HBE cells: Compound 0 (DL) at 20, compounds 1 and 11 at 15, compounds 2 and 3 at 10, compounds 4, 6, 8, and 9 at 5, compounds 5, 7, and 10 at 2.5.
The same transfection procedure as described above was applied.
The concentration of P704 in ternary complexes was 63 (w/w). The N/P ratio of the compounds in certain ternary complexes was as follows:
16HBE cells: Compound 1, 8, and 11 at 20; compound 0 (DL) and 3 at 10; compound 2 at 7.5; compounds 4, 6, 9, and 10 at 5, compounds 5 and 7 at 2.5. […]

As to “KETWWETWWTEWWTEW-KKKKRRRRRKKKK-GACSERSMNFCG (KETWWETWWTEWWTEWKKKKRRRRRKKKKGACSERSMNFCG) [compound 9]”, the “particle size of ternary complex compared with other counterparts” value in data set [1] is listed as “slightly smaller”. For the same substance, the “IVT-mRNA transfection efficiency of P704 ternary complex (in words)” value with BEAS-2B cells (MetLuc mRNA, P704 63 (w/w), optimum N/P, FIG. 17a) is “more superior to other counterparts”; in the data set on 16HBE cells (MetLuc mRNA, P704 63 (w/w), optimum N/P, FIG. 17b), “more superior to other counterparts”. For the same substance, the “pDNA transfection efficiency of P704 ternary complex (in words)” value in the data set on BEAS-2B cells (MetLuc pDNA, P704 50 (w/w), optimum N/P, FIG. 14a) was “highest transfection efficiency”; in the data set with 16HBE cells (MetLuc pDNA, P704 63 (w/w), optimum N/P, FIG. 14b) it was “overwhelming signals”.
Regarding “NH2-VKRKKKPKKRRRRKKWK(DL-lipoic acid)-CONH2 (H-VKRKKKPKKRRRRKKWK(Lipoyl(6ξ))-NH2; SMILES CC(C)[C@H](N)C(=O)N[C@@H](CCCCN)C(=O)N[C@@H](CCCNC(=N)N)C(=O)N[C@@H](CCCCN)C(=O)N[C@@H](CCCCN)C(=O)N[C@@H](CCCCN)C(=O)N1CCC[C@H]1C(=O)N[C@@H](CCCCN)C(=O)N[C@@H](CCCCN)C(=O)N[C@@H](CCCNC(=N)N)C(=O)N[C@@H](CCCNC(=N)N)C(=O)N[C@@H](CCCNC(=N)N)C(=O)N[C@@H](CCCNC(=N)N)C(=O)N[C@@H](CCCCN)C(=O)N[C@@H](CCCCN)C(=O)N[C@@H](Cc1c[nH]c2ccccc12)C(=O)N[C@@H](CCCCNC(=O)CCCCC1CCSS1)C(N)=O) [compound 0 (DL)]”, the “pDNA expression relative to compound 3 containing ternary complex” value with BEAS-2B cells (MetLuc pDNA, FIG. 14a) is given as around 5 times. Besides, in the data set with 16HBE cells (other days than day 2), the “pDNA expression compared with compound 3 containing ternary complex” value is given as “significantly higher”.
